US20260028354A1, “TETRAHYDRONAPHTHALENE DERIVATIVES AS ESTROGEN RECEPTOR DEGRADERS” (REGENT OF THE UNIVERSITY OF MICHIGAN, priority 2022, published 2026)
Where two headings read alike, the source gives them in different places.

Experiments:
CRBN/DDB1 = CRBN/DDB1 (Homo sapiens (Human), UniProt Q96SW2); type: binding; details: His tagged CRBN+DDB1, Cy5-labeled Thalidomide probe, one hour; read-out: CRBN HTRF IC50
Protocol: The binding potency was determined using HTRF assay technology (Perkin Elmer). Compounds were serially diluted in DMSO and […] volume was transferred to white 384-well plate.

ER in T47D cells = ER in T47D cells (Homo sapiens (Human), UniProt P03372); experiment: In-cell Western (ICW) ER degradation assay in T47D cells; type: cell-based; details: for DC50: ER degradation
ER in MCF-7 cells = ER in MCF-7 cells (Homo sapiens (Human), UniProt P03372); experiment: In-cell Western (ICW) ER degradation assay in MCF-7 cells; type: cell-based; details: for DC50: MCF-7, ER degradation, read-out: MCF7 DC50
ERα_LBD (GST) = ERα_LBD (GST) (Homo sapiens (Human), UniProt P03372); experiment: IC50 measurements for binding to ERα_LBD (GST), LanthaScreen TR-FRET competitive binding; details: ERα_LBD (GST) 4 nM, Fluormone ES2 Green tracer, 60 min; read-out: ERα HTRF IC50
Protocol: In vitro Assay: IC50 Measurements for binding to ERα_LBD (GST) • Final assay conditions: • 1. ERα_LBD (GST) protein: 4 nM • 2. Tb Anti-GST: 2 nM • 3. Fluormone ES2 Green tracer: 3 nM • 4. Incubation time: 60 min • 5. DMSO: 1% • 6. Assay buffer: Adding 1M DTT to Nuclear receptor Buffer K for final 5 mM DTT. • 7. ZPE: 1% DMSO • 8. HPE: 1 μM ARV_471 (positive control) • 9. LanthaScreen® TR-FRET ERα Competitive Binding Assay (ThermoFisher, #A^15887) • 100× Compound preparation
1) Cherry pick 2 μL 10 mM compound stock to column 1 of a 384 intermediate plate. • 2) Add 18 μL DMSO to column 1 to dilute compound to 1 mM. • 3) Transfer 10 μL 1 mM compound to column 1 of a LDV plate. • 2) Add 6 μl DMSO to column 2-10 of the LDV plate. • 3) Compounds undergo 3-fold serial dilution (3 μL+6 μL) in DMSO. • 4) Transfer 120 nL compound solution to assay plate. ZPE: 120 nL 100% DMSO • Procedure:
Complete nuclear receptor buffer K was prepared by adding 1 M DTT to nuclear receptor buffer K for a final concentration of 5 mM DTT. Complete nuclear receptor buffer K must be prepared fresh daily, 2X protein solution was prepared using complete nuclear receptor buffer K containing 8 nM ERα_LBD (GST) and 4 nM Tb Anti-GST. Then, 2X Fluormone ES2 Green tracer (6 nM) was prepared using complete nuclear receptor buffer K. Add 6 μL 2X Fluormone ES2 green tracer into a compound plate (PerkinElmer 6008289) by dragonfly with one-tips-addition. Subsequently, 6 μL 2× protein solution was added into the plate. The 384-well plate was mixed on a plate shaker and incubated at room temperature protected from light for 60 min. The plate was scaled with a cover to minimize evaporation. The plate was read at wavelengths of 520 nm and 495 nm. The TR-FRET ratio was calculated by dividing the emission signal at 520 nm by the emission signal at 495 nm. A binding curve was generated by plotting the emission ratio vs, the log [ligand]. To determine the IC50 value, fit the data using XL-fit for a sigmoidal dose-response.

MCF-7 cells = experiment: CellTiter-Glo (CTG) cell proliferation assay in MCF-7 cells; type: cell-based; details: MCF-7 cell proliferation
Excerpt: CellTiter-Glo® (CTG) Assays in MCF-7 and T47D Cell Lines.
In vitro Assay: MCF-7 and T47D CTG assay

[1] = read-out: T47D Dmax, T47D, maximal ER degradation, 16 hrs treatment
[2] = MCF7, read-out: MCF7 Dmax, MCF-7, maximal ER degradation, 16 hrs treatment
[3] = Homo sapiens, MCF7, 144 h, Day 6
[4] = MCF7, MCF-7, maximal ER degradation, 16 hrs treatment, read-out: MCF7 Dmax
[5] = maximal ER degradation, 16 hrs treatment, read-out: T47D Dmax

CRBN/DDB1, sequence (Q96SW2 whole entry, species assumed): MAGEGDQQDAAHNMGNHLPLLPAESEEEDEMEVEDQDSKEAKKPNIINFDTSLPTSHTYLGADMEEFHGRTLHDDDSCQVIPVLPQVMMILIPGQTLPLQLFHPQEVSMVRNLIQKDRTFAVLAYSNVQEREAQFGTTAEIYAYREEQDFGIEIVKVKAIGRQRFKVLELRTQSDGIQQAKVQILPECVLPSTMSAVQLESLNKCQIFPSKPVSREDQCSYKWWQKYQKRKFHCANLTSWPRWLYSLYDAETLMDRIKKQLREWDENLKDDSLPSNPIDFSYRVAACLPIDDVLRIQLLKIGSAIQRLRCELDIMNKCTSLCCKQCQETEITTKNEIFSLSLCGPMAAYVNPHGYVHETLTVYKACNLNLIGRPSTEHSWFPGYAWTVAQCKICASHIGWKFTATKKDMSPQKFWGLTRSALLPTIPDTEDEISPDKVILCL
CRBN/DDB1, sequence (Q16531 whole entry partner, species assumed): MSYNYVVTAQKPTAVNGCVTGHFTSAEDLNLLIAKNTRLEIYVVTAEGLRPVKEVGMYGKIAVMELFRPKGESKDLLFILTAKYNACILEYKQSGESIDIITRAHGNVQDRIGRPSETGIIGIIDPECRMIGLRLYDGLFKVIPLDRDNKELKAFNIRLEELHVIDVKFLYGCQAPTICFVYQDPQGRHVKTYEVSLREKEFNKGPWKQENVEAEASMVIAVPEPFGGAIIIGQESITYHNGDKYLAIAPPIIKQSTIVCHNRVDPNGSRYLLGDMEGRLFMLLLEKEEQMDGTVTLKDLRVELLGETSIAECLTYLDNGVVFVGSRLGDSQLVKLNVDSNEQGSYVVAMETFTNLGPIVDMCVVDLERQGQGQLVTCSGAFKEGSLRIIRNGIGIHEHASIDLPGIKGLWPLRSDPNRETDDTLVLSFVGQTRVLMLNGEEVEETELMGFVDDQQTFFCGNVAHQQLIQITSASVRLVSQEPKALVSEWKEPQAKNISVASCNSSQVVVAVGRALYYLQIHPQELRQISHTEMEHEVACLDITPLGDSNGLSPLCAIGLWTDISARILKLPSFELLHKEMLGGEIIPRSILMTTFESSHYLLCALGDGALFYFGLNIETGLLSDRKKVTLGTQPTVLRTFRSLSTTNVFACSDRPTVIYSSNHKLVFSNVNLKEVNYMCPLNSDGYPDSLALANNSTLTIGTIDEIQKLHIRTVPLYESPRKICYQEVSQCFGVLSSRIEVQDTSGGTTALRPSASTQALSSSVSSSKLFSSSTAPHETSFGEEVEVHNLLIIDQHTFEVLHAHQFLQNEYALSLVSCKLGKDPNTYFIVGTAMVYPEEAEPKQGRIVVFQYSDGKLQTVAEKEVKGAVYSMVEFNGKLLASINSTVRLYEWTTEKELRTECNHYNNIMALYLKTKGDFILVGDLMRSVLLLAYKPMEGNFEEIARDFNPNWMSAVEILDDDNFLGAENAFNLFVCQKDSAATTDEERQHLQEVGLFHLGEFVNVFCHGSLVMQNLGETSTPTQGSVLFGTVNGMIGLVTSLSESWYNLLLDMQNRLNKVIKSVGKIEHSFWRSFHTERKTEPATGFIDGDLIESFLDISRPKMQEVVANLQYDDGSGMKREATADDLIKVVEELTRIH
ERα_LBD (GST), sequence (P03372 311-547): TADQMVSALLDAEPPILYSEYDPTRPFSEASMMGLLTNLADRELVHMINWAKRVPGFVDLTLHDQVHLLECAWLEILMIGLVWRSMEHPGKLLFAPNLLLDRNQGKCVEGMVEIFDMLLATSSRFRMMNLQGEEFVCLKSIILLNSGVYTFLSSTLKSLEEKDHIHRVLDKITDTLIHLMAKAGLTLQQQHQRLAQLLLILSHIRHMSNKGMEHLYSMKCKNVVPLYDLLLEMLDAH
ER in T47D cells, sequence (P03372 whole entry): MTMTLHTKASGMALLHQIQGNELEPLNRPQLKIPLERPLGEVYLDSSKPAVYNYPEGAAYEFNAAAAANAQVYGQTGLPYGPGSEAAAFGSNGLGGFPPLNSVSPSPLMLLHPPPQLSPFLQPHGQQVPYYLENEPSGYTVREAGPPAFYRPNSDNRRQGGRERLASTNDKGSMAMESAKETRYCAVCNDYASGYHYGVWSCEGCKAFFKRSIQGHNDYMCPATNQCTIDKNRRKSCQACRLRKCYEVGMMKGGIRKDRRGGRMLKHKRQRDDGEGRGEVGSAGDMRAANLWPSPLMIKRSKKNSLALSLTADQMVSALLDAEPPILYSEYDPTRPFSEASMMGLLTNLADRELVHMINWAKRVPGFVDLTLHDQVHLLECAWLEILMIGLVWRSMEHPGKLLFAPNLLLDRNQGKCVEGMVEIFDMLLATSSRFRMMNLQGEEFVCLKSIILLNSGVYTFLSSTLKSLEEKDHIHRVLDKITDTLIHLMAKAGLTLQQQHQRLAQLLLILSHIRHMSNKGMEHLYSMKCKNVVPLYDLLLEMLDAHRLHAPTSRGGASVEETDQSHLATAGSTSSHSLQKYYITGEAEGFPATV
ER in MCF-7 cells, sequence (P03372 whole entry): as above

Compound	IC50 (CRBN/DDB1)	DC50 (ER in T47D cells; 16 hrs treatment)	Dmax (ER in T47D cells; [1])	Dmax (ER in MCF-7 cells; [2])	DC50 (ER in MCF-7 cells; 16 hrs treatment)	IC50 (ERα_LBD (GST))	IC50 (MCF-7 cells; [3])	Dmax (ER in MCF-7 cells; [4])	Dmax (ER in T47D cells; [5])	IC50 (MCF-7 cells; Day 6, read-out: MCF7 IC50)	MCF7 Dmax (ER in MCF-7 cells; MCF-7, maximal ER degradation, 16 hrs treatment)
O=C1CC[C@H](N2Cc3c(ccc4c3OCC43CCN(CC4CCC5(CC4)CN(c4ncc([C@@H]6c7ccc(O)cc7CC[C@@H]6c6ccccc6)cn4)C5)CC3)C2=O)C(=O)N1 [Compound A154, (S)-3-(1′-((2-(5-((1S,2S)-6-hydroxy-2-phenyl-1,2,3,4-tetrahydronaphthalen-1-yl)pyrimidin-2-yl)-2-azaspiro[3.5]nonan-7-yl)methyl)-6-oxo-6,8-dihydro-2H,7H-spiro[furo[2,3-e]isoindole-3,4′-piperidin]-7-yl)piperidine-2,6-dione]	< 50 nM	< 1 nM	> 75%	50 to 75%	< 1 nM	< 10 nM	–	–	–	–	–
O=C1CC[C@H](N2Cc3c(ccc4c3OC[C@H]3CN(CC5CCN(c6ccc([C@@H]7c8ccc(O)cc8CC[C@@H]7c7ccccc7)cc6)CC5)CCN43)C2=O)C(=O)N1 [Compound A71, (S)-3-((R)-7-((1-(4-((1R,2S)-6-hydroxy-2-phenyl-1,2,3,4-tetra-hydronaphthalen-1-yl)phenyl)-piperidin-4-yl)methyl)-1-oxo-1,3,5,5a,6,7,8,9-octahydro-2H-pyrazino[1′,2′:4,5][1,4]oxazino [2,3-e]isoindol-2-yl)piperidine-2,6-dione]	50 to 500 nM	–	–	–	< 1 nM	< 10 nM	< 10 nM	> 75%	–	–	–
O=C1CC[C@H](N2Cc3c(ccc4c3OC[C@H]3CN(C[C@@H]5COC6(C5)CN(c5ccc([C@@H]7c8ccc(O)cc8CC[C@@H]7c7ccccc7)cc5)C6)CCN43)C2=O)C(=O)N1 (single isomer, unassigned) [Compound A69]	50 to 500 nM	< 1 nM	–	–	< 1 nM	< 10 nM	–	50 to 75%	> 75%	–	–
O=C1CC[C@H](N2Cc3cc4c(cc3C2=O)OCC42CCN(C[C@@H]3COC4(CCN(c5ccc([C@H]6c7ccc(O)cc7CC[C@H]6c6ccccc6)cc5)CC4)C3)CC2)C(=O)N1 [Compound A25, (S)-3-(1′-(((R)-8-(4-((1S,2R)-6-hydroxy-2-phenyl-1,2,3,4-tetrahydronaphthalen-1-yl)phenyl)-1-oxa-8-azaspiro[4.5]decan-3-yl)methyl)-7-oxo-5,7-dihydro-2H,6H-spiro[furo[2,3-f]isoindole-3,4′-piperidin]-6-yl)piperidine-2,6-dione]	–	< 1 nM	> 75%	> 75%	< 1 nM	< 10 nM	< 10 nM	–	–	–	–
O=C1CC[C@H](N2Cc3c(ccc4c3OC[C@H]3CN(C[C@H]5COC6(C5)CN(c5ccc([C@@H]7c8ccc(O)cc8CC[C@@H]7c7ccccc7)cc5)C6)CCN43)C2=O)C(=O)N1 (single isomer, unassigned) [Compound A68]	< 50 nM	< 1 nM	–	–	< 1 nM	< 10 nM	10 to 100 nM	50 to 75%	> 75%	–	–
COc1cc(N2CCC3(CC2)CC(CN2CCN4c5ccc6c(c5OC[C@H]4C2)CN([C@H]2CCC(=O)NC2=O)C6=O)C3)ccc1[C@H]1c2ccc(O)cc2CC[C@H]1c1ccccc1 (single isomer, unassigned) [Compound A9]	< 50 nM	1 to 10 nM	–	–	1 to 10 nM	10 to 100 nM	–	50 to 75%	50 to 75%	–	–
O=C1CC[C@H](N2Cc3cc4c(cc3C2=O)OC[C@@H]2CN(C[C@@H]3COC5(C3)CN(c3ccc([C@@H]6c7ccc(O)cc7CC[C@@H]6c6ccccc6)cc3)C5)CCN42)C(=O)N1 [Compound A73, (S)-3-((S)-3-(((R)-2-(4-((1R,2S)-6-hydroxy-2-phenyl-1,2,3,4-tetrahydronaphthalen-1-yl)phenyl)-5-oxa-2-azaspiro[3.4]octan-7-yl)methyl)-8-oxo-1,2,3,4,4a,5,8,10-octahydro-9H-pyrazino[1′,2′:4,5][1,4]oxazino[2,3-f]isoindol-9-yl)piperidine-2,6-dione]	500 to 5000 nM	< 1 nM	–	–	< 1 nM	< 10 nM	10 to 100 nM	> 75%	> 75%	–	–
COc1cc(N2CCC(CN3CCN4c5ccc6c(c5OC[C@@H]4C3)CN([C@@H]3CCC(=O)NC3=O)C6=O)CC2)ccc1[C@H]1c2ccc(O)cc2CC[C@H]1c1ccccc1 (stereo in doubt) [Compound A24, (R)-3-((S)-7-((1-(4-((1R,2R)-6-hydroxy-2-phenyl-1,2,3,4-tetrahydronaphthalen-1-yl)-3-methoxyphenyl)piperidin-4-yl)methyl)-1-oxo-1,3,5,5a,6,7,8,9-oCtahydro-2H-pyrazino [1′,2′:4,5][1,4]oxazino[2,3-e]isoindol-2-yl)piperidine-2,6-dione]	50 to 500 nM	< 1 nM	–	–	< 1 nM	< 10 nM	10 to 100 nM	> 75%	> 75%	–	–
O=C1CC[C@H](N2Cc3cc4c(cc3C2=O)OC[C@H]2CN(C[C@@H]3COC5(CCN(c6ccc([C@@H]7c8ccc(O)cc8CC[C@@H]7c7ccccc7)cc6)CC5)C3)CCN42)C(=O)N1 (single isomer, unassigned) [Compound A18]	500 to 5000 nM	< 1 nM	–	–	< 1 nM	> 100 nM	–	50 to 75%	50 to 75%	–	–
COc1cc(N2CCC3(CC2)CC(CN2CCC4(CC2)COc2c4ccc4c2CN([C@H]2CCC(=O)NC2=O)C4=O)C3)ccc1[C@@H]1c2ccc(O)cc2CC[C@@H]1c1ccccc1 [Compound A95, (S)-3-(1′-((7-(4-((1S,2S)-6-hydroxy-2-phenyl-1,2,3,4-tetra-hydronaphthalen-1-yl)-3-meth-oxyphenyl)-7-azaspiro[3.5]nonan-2-yl)methyl)-6-oxo-6,8-dihydro-2H,7H-spiro[furo[2,3-e]isoindole-3,4′-piperidin]-7-yl)piperidine-2,6-dione]	< 50 nM	< 1 nM	> 75%	> 75%	< 1 nM	< 10 nM	–	–	–	–	–
(S)-3-(1′-(((S)-2-(4-((1R,2S)-6- hydroxy-2-phenyl-1,2,3,4- tetrahydronaphthalen-1- yl)phenyl)-5-oxa-2- azaspiro[3.4]octan-7-yl)methyl)- 7-oxo-5,7-dihydro-2H,6H- spiro[furo[2,3-f]isoindole-3,4′- piperidin]-6-yl)piperidine-2,6- dione [Compound A76]	50 to 500 nM	–	–	–	< 1 nM	< 10 nM	–	–	–	< 10 nM	A (“A”: >=75%)
COc1cc(N2CCC3(CC2)CC(CN2CCN4c5cc6c(cc5OC[C@@H]4C2)C(=O)N([C@H]2CCC(=O)NC2=O)C6)C3)ccc1[C@H]1c2ccc(O)cc2CC[C@H]1c1ccccc1 (single isomer, unassigned) [Compound A11]	50 to 500 nM	1 to 10 nM	–	–	10 to 100 nM	10 to 100 nM	–	50 to 75%	50 to 75%	–	–
COc1cc(N2CCC(CN3CCN4c5ccc(C(=O)N[C@H]6CCC(=O)NC6=O)nc5OC[C@H]4C3)CC2)c(F)cc1[C@@H]1c2ccc(O)cc2CC[C@@H]1c1ccccc1 [Compound A94, (R)-N-((S)-2,6-dioxopiperidin-3-yl)-3-((1-(2-fluoro-4-((1S,2S)-6-hydroxy-2-phenyl-1,2,3,4-tetrahydronaphthalen-1-yl)-5-methoxyphenyl)piperidin-4-yl)methyl)-1,2,3,4,4a,5-hexahydropyrazino[1,2-d]pyrido[2,3-b][1,4]oxazine-8-carboxamide]	> 5000 nM	< 1 nM	–	–	< 1 nM	< 10 nM	–	> 75%	> 75%	–	–
